Experimental data taken from patent US4459302A, “Acyl-1H-1,2,4-triazole derivatives” (Gruppo Lepetit, S.p.A., priority 1978, dated 1984).

Test system: female Syrian golden hamsters
Test: antifertility (post-coital post-implantation) activity, subcutaneous, hamsters
Format: in vivo, Syrian golden hamster
Conditions: for ED50: Mesocricetus auratus, sc, 336 h, s.c. hamster, dosed days 4-8 of pregnancy, autopsy day 14, read-out: ED50 (100% activity, absence of live fetuses, in 50% of the animals)
Text: Fertility regulation can usually be achieved in a number of ways through the administration of hormonal substances. These can involve ovulation inhibition, ova transport, fertilization, implantation of the zygote, resorption of the fetus or abortion. Only with ovulation inhibition has there developed a successful method that is clinically useful. The compounds of this invention allow an entirely new approach to this problem in which a non-hormonal compound can be administered parenterally, orally or by intravaginal route once or more times as needed after a "missed period" or to induce termination of a more advanced pregnancy. Representative experiments for assessing antifertility activity were carried out with female Syrian golden hamsters weighing 100 to 130 g. The animals were mated and the presence of sperm in the vagina was taken as evidence of mating. The day sperm was detected and considered day one of pregnancy, since in our laboratories and those of other investigators 90 to 100% of animals that mate as evidenced by vaginal sperm are pregnant.
Pregnancy was later confirmed at the time of autopsy by presence of fetuses or implantation sites in the uterus. Even if an animal aborts the fetus, implantation scars still remain as evidence that the animal has been pregnant. […] The animals were autopsied on day 14 of pregnancy and the uteri were examined for evidence of pregnancy (implantation sites, fetalresorption or live fetuses), hemorrhage, and evidence of abnormalities of the uterus, placenta or fetuses. A compound was considered to be active if there was a reduction of live fetuses in at least 60% of the treated animals and the presence of implantation sites proves the animal to have been pregnant.
The compounds were then studied for dose-activity relationship and the corresponding ED50 values, i.e. 100% activity (absence of live fetuses) in 50% of the animals, were also detrmined. The following Table reports the ED50 values of some representative compounds of the invention as well as that of the above mentioned known substance: […]

Row | SMILES | ED50 | activity by the criterion: reduction of live fetuses in at least 60% of the treated animals (hamster, 10 mg/kg s.c. daily for 5 days, days 4-8 of pregnancy)
1 | COc1cccc(-c2nc(-c3ccccc3C)nn2C(=O)Nc2ccc(C)cc2)c1 [Example 22b, 5-(3-methoxyphenyl)-3-(2-methylphenyl)-1-(4-methylphenylcarbamoyl)-1H-1,2,4-triazole] | 0.08 mg/kg | –
2 | COc1cccc(-c2nc(-c3ccccc3C)n(C)n2)c1 [1-Methyl-3-(3-methoxyphenyl)-5-(2-methylphenyl)-1H-1,2,4,-triazole, reference compound] | > 10 mg/kg | much less active
3 | CCOC(=O)n1nc(-c2cccc(OC)c2)nc1-c1ccccc1CC [Example 8, 1-Carbethoxy-5-(2-ethylphenyl)-3-(3-methoxyphenyl)-1H-1,2,4-triazole] | 0.05 mg/kg | –
4 | CCNC(=O)n1nc(-c2cccc(OC)c2)nc1-c1ccccc1C [Example 14] | 0.15 mg/kg | –
5 | CCc1ccccc1-c1nc(-c2cccc(OC)c2)nn1C(=O)Nc1ccc(OC)cc1 [Example 17, 5-(2-Ethylphenyl)-3-(3-methoxyphenyl)-1-(4-methoxyphenylcarbamoyl)-1H-1,2,4-triazole] | 0.07 mg/kg | –
6 | CCC(=O)n1nc(-c2cccc(OC)c2)nc1-c1ccccc1C [Example 2, 1-Propionyl-3-(3-methoxyphenyl)-5-(2-methylphenyl)-1H-1,2,4-triazole] | 0.07 mg/kg | –
7 | COc1cccc(-c2nc(-c3ccccc3C)n(C(=O)C(C)(C)C)n2)c1 [Example 3, 1-(2,2-Dimethylpropionyl)-3-(3-methoxyphenyl)-5-(2-methylphenyl)-1H-1,2,4-triazole] | 0.15 mg/kg | –
8 | COc1cccc(-c2nc(-c3ccccc3C)n(C(=O)Nc3ccc(C)cc3)n2)c1 [Example 22a, 3-(3-methoxyphenyl)-5-(2-methylphenyl)-1-(4-methylphenylcarbamoyl)-1H-1,2,4-triazole] | 0.08 mg/kg | –
9 | CCOC(=O)n1nc(-c2cccc(OC)c2)nc1-c1ccccc1C [Example 10, 1-Carbethoxy-3-(3-methoxyphenyl)-5-(2-methylphenyl)-b 1H-1,2,4-triazole] | 0.06 mg/kg | –
10 | CCc1ccccc1-c1nc(-c2cccc(OC)c2)nn1C(=O)Nc1ccc(C)cc1 [Example 21a, 5-(2-Ethylphenyl)-3-(3-methoxyphenyl)-1-(4-methylphenylcarbamoyl)-1H-1,2,4-triazole] | 0.05 mg/kg | –
11 | COc1cccc(-c2nc(-c3ccccc3C)n(C(C)=O)n2)c1 [Example 1, 1-Acetyl-3-(3-methoxyphenyl)-5-(2-methylphenyl)-1H-1,2,4-triazole] | 0.05 mg/kg | –
12 | COc1cccc(-c2nc(-c3ccccc3C)n(C(=O)Nc3ccccc3)n2)c1 [Example 13, 3-(3-Methoxyphenyl)-5-(2-methylphenyl)-1-phenylcarbamoyl-1H-1,2,4-triazole] | 0.05 mg/kg | –
13 | COc1cccc(-c2n[nH]c(-c3ccccc3COC(C)=O)n2)c1 [Example 24, 5-(2-Acetoxymethylphenyl)-3-(3-methoxyphenyl)-1H-1,2,4-triazole] | 0.04 mg/kg | –
14 | CCc1ccccc1-c1nc(-c2cccc(OC)c2)nn1C(=O)Nc1ccc([N+](=O)[O-])cc1 [Example 20, 5-(2-Ethylphenyl)-3-(3-methoxyphenyl)-1-(4-nitrophenyl)carbamoyl-1H-1,2,4-triazole] | 0.05 mg/kg | –
15 | CCc1ccccc1-c1nc(-c2cccc(OC)c2)nn1C(=O)NC [Example 15, 5-(2-Ethylphenyl)-3-(3-methoxyphenyl)-1-methylcarbamoyl-1H-1,2,4-triazole] | 0.05 mg/kg | –
16 | CCc1ccccc1-c1nc(-c2cccc(OC)c2)nn1C(=O)Nc1ccccc1 [Example 16] | 0.05 mg/kg | –
17 | COc1cccc(-c2nc(-c3ccccc3COC(C)=O)n(C(C)=O)n2)c1 [Example 7, 1-Acetyl-5-(2-acetoxymethylphenyl)-3-(3-methoxyphenyl)-1H-1,2,4-triazole] | 0.04 mg/kg | –
18 | COc1cccc(-c2nc(-c3ccccc3C)n(C(=O)c3ccccc3)n2)c1 [Example 11, 1-Benzoyl-3-(3-methoxyphenyl)-5-(2-methylphenyl)-1H-1,2,4-triazole] | 0.1 mg/kg | –
19 | COc1cccc(-c2nc(-c3ccc(Cl)cc3C)n(C(C)=O)n2)c1 [Example 5, 1-Acetyl-5-(4-chloro-2-methylphenyl)-3-(3-methoxyphenyl)-1H-1,2,4-triazole] | 0.06 mg/kg | –
20 | CCc1ccccc1-c1nc(-c2cccc(OC)c2)nn1C(=O)Nc1ccc(Cl)cc1 [Example 19, 1-(4-Chlorophenylcarbamoyl)-5-(2-ethylphenyl)-3-(3-methoxyphenyl)-1H-1,2,4-triazole] | 0.05 mg/kg | –
21 | CCc1ccccc1-c1nc(-c2cccc(OC)c2)nn1C(C)=O [Example 6, 1-Acetyl-5-(2-ethylphenyl)-3-(3-methoxyphenyl)-1H-1,2,4-triazole] | 0.04 mg/kg | –
22 | CCc1ccccc1-c1nc(-c2cccc(OC)c2)nn1C(=O)Nc1ccccc1Cl [Example 18] | 0.05 mg/kg | –
23 | CCc1ccccc1-c1nc(-c2cccc(OC)c2)n(C(=O)Nc2ccc(C)cc2)n1 [Example 21b, 3-(2-ethylphenyl)-5-(3-methoxyphenyl)-1-(4-methylphenylcarbamoyl)-1H-1,2,4-triazole] | 0.04 mg/kg | –
24 | CCc1ccccc1-c1nc(-c2cccc(OC)c2)nn1C(=O)OC [Example 9, 1-Carbomethoxy-5-(2-ethylphenyl)-3-(3-methoxyphenyl)-1H-1,2,4-triazole] | 0.05 mg/kg | –
